Results published in ChEMBL document CHEMBL1201862, “PubChem BioAssay data set” (2004).
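Test compounds were applied to cells in 96-well plates for 48 hours at 5 doses. GI50: concentration for 50% inhibition of growth.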 The source made the active and inactive calls. Rule as the data show it: active = GI50 up to about 1.1 µM and inactive = higher. Square brackets hold non-standard residues; d marks the D form. Peptide text beside a SMILES is read from it. * marks the point of attachment. ξ: configuration not given here. NMeY = CN[C@@H](Cc1ccc(O)cc1)C(=O)O; Cbz = O=C(OCc1ccccc1)*; ξA = CC(N)C(=O)O

What was measured:
Test in all cases: DTP human tumour cell line panel, 48 h
CAKI-1 = tested on: CAKI-1
DU-145 = tested on: DU-145
HCC 2998 = tested on: HCC 2998
HCT-15 = tested on: HCT-15
KM12 = tested on: KM12
M14 = tested on: M14
MDA-MB-231 = tested on: MDA-MB-231
MDA-MB-435 = tested on: MDA-MB-435
NCI-H23 = tested on: NCI-H23
OVCAR-3 = tested on: OVCAR-3
OVCAR-4 = tested on: OVCAR-4
OVCAR-8 = tested on: OVCAR-8
RXF 393 = tested on: RXF 393
SF-295 = tested on: SF-295
SF-539 = tested on: SF-539
SK-MEL-28 = tested on: SK-MEL-28
SNB-19 = tested on: SNB-19
SR = tested on: SR
UACC-257 = tested on: UACC-257
UO-31 = tested on: UO-31

Q: For `C=C(CO)[C@H]1Oc2ccc(C(C)=O)cc2[C@@H]1O`, which GI50 (CAKI-1) is on record?
A: The GI50 was > 100 µM (inactive).

Q: What about the GI50 (DU-145) of the same compound?
A: Its GI50 is > 100 µM (inactive).

Q: What about the GI50 (HCC 2998) of the same compound?
A: Its GI50 is > 100 µM (inactive).

Q: And the GI50 (HCT-15)?
A: Its GI50 is 80.9 µM.

Q: What about the GI50 (KM12) of the same compound?
A: The GI50 was > 100 µM (inactive).

Q: And the GI50 (M14)?
A: Its GI50 is > 100 µM (inactive).

Q: And the GI50 (MDA-MB-231)?
A: Its GI50 is > 100 µM (inactive).

Q: And the GI50 (MDA-MB-435)?
A: Its GI50 is 36.8 µM (inactive).

Q: And the GI50 (NCI-H23)?
A: Its GI50 is > 100 µM (inactive).

Q: What about the GI50 (OVCAR-3) of the same compound?
A: The GI50 was > 100 µM (inactive).

Q: What about the GI50 (OVCAR-4) of the same compound?
A: The GI50 was > 100 µM (inactive).

Q: What about the GI50 (OVCAR-8) of the same compound?
A: Its GI50 is > 100 µM (inactive).

Q: What about the GI50 (RXF 393) of the same compound?
A: Its GI50 is > 100 µM (inactive).

Q: And the GI50 (SF-295)?
A: The GI50 was > 100 µM (inactive).

Q: And the GI50 (SF-539)?
A: The GI50 was > 100 µM (inactive).

Q: What about the GI50 (SK-MEL-28) of the same compound?
A: Its GI50 is > 100 µM (inactive).

Q: What about the GI50 (SNB-19) of the same compound?
A: The GI50 was > 100 µM (inactive).

Q: And the GI50 (SR)?
A: The GI50 was > 100 µM (inactive).

Q: What about the GI50 (UACC-257) of the same compound?
A: The GI50 was > 100 µM (inactive).

Q: And the GI50 (UO-31)?
A: The GI50 was > 100 µM (inactive).

Q: With `COc1ccc(C[C@@H](C(=O)N[C@@H](C)C(N)=O)N(C)C(=O)[C@@H]2CCCN2C(=O)[C@H](CC(C)C)NC(=O)C(C)NC(=O)OCc2ccccc2)cc1` (stereo not given in full) (Cbz-[ξA]LP[NMeY](Me)A-NH2) as the compound, how does the GI50 (CAKI-1) read?
A: Its GI50 is > 100 µM (inactive).

Q: What about the GI50 (DU-145) of the same compound?
A: Its GI50 is > 100 µM (inactive).

Q: And the GI50 (HCC 2998)?
A: Its GI50 is > 100 µM (inactive).

Q: What about the GI50 (HCT-15) of the same compound?
A: Its GI50 is greater than 100 µM.

Q: What about the GI50 (KM12) of the same compound?
A: Its GI50 is > 100 µM (inactive).

Q: What about the GI50 (M14) of the same compound?
A: Its GI50 is > 100 µM (inactive).

Q: What about the GI50 (MDA-MB-231) of the same compound?
A: Its GI50 is > 100 µM (inactive).

Q: And the GI50 (MDA-MB-435)?
A: The GI50 was > 100 µM (inactive).

Q: What about the GI50 (NCI-H23) of the same compound?
A: The GI50 was > 100 µM (inactive).

Q: And the GI50 (OVCAR-3)?
A: Its GI50 is > 100 µM (inactive).

Q: And the GI50 (OVCAR-4)?
A: Its GI50 is > 100 µM (inactive).

Q: And the GI50 (OVCAR-8)?
A: The GI50 was > 100 µM (inactive).

Q: And the GI50 (RXF 393)?
A: The GI50 was > 100 µM (inactive).

Q: And the GI50 (SF-295)?
A: The GI50 was > 100 µM (inactive).

Q: What about the GI50 (SF-539) of the same compound?
A: Its GI50 is > 100 µM (inactive).

Q: What about the GI50 (SK-MEL-28) of the same compound?
A: Its GI50 is > 100 µM (inactive).

Q: And the GI50 (SNB-19)?
A: The GI50 was > 100 µM (inactive).

Q: And the GI50 (SR)?
A: Its GI50 is > 100 µM (inactive).

Q: What about the GI50 (UACC-257) of the same compound?
A: Its GI50 is > 10 µM (inactive).

Q: What about the GI50 (UO-31) of the same compound?
A: The GI50 was > 100 µM (inactive).

Q: How did the GI50 (CAKI-1) turn out when `Nc1nc(O)c(Br)c(-c2cccc([N+](=O)[O-])c2)n1` was run?
A: Its GI50 is 58.5 µM (inactive).

Q: And the GI50 (DU-145)?
A: The GI50 was > 100 µM (inactive).

Q: And the GI50 (HCC 2998)?
A: The GI50 was > 100 µM (inactive).

Q: And the GI50 (HCT-15)?
A: The GI50 was greater than 100 µM.

Q: What about the GI50 (KM12) of the same compound?
A: The GI50 was > 100 µM (inactive).

Q: And the GI50 (M14)?
A: Its GI50 is > 38.8 µM (inactive).

Q: And the GI50 (MDA-MB-231)?
A: Its GI50 is > 100 µM (inactive).

Q: What about the GI50 (MDA-MB-435) of the same compound?
A: Its GI50 is > 100 µM (inactive).

Q: What about the GI50 (NCI-H23) of the same compound?
A: Its GI50 is 40.9 µM (inactive).

Q: What about the GI50 (OVCAR-3) of the same compound?
A: The GI50 was > 100 µM (inactive).

Q: What about the GI50 (OVCAR-4) of the same compound?
A: The GI50 was > 100 µM (inactive).

Q: And the GI50 (OVCAR-8)?
A: The GI50 was 73.5 µM (inactive).

Q: What about the GI50 (RXF 393) of the same compound?
A: Its GI50 is > 100 µM (inactive).

Q: What about the GI50 (SF-295) of the same compound?
A: The GI50 was > 50.4 µM (inactive).

Q: What about the GI50 (SF-539) of the same compound?
A: Its GI50 is > 58.1 µM (inactive).

Q: What about the GI50 (SK-MEL-28) of the same compound?
A: Its GI50 is > 100 µM (inactive).

Q: And the GI50 (SNB-19)?
A: Its GI50 is 25.9 µM (inactive).

Q: What about the GI50 (SR) of the same compound?
A: Its GI50 is 64 µM (inactive).

Q: And the GI50 (UACC-257)?
A: Its GI50 is > 55 µM (inactive).

Q: And the GI50 (UO-31)?
A: Its GI50 is > 62.1 µM (inactive).

Q: For `COC(=O)CCC(C)[C@H]1CCC2C3C(C[C@H](OC(C)=O)[C@@]21C)[C@@]1(C)CCC2(C[C@H]1C[C@H]3OC(C)=O)OOC1(CCCCC1)OO2` (stereo not given in full), which GI50 (CAKI-1) is on record?
A: Its GI50 is 41.1 µM (inactive).

Q: And the GI50 (DU-145)?
A: The GI50 was 41.5 µM (inactive).

Q: And the GI50 (HCC 2998)?
A: Its GI50 is 28.3 µM (inactive).

Q: What about the GI50 (HCT-15) of the same compound?
A: Its GI50 is 21.8 µM.

Q: And the GI50 (KM12)?
A: The GI50 was 23.6 µM (inactive).

Q: What about the GI50 (M14) of the same compound?
A: Its GI50 is 15.5 µM (inactive).

Q: And the GI50 (MDA-MB-231)?
A: Its GI50 is 18 µM (inactive).

Q: And the GI50 (MDA-MB-435)?
A: Its GI50 is 36.2 µM (inactive).

Q: What about the GI50 (NCI-H23) of the same compound?
A: The GI50 was 12.7 µM (inactive).

Q: What about the GI50 (OVCAR-3) of the same compound?
A: The GI50 was 40.5 µM (inactive).

Q: And the GI50 (OVCAR-4)?
A: Its GI50 is 15.8 µM (inactive).

Q: And the GI50 (OVCAR-8)?
A: Its GI50 is 17.6 µM (inactive).

Q: What about the GI50 (RXF 393) of the same compound?
A: The GI50 was 38.7 µM (inactive).

Q: What about the GI50 (SF-295) of the same compound?
A: The GI50 was 20.7 µM (inactive).

Q: What about the GI50 (SF-539) of the same compound?
A: Its GI50 is 60.1 µM (inactive).

Q: What about the GI50 (SK-MEL-28) of the same compound?
A: Its GI50 is > 100 µM (inactive).

Q: What about the GI50 (SNB-19) of the same compound?
A: Its GI50 is 42.2 µM (inactive).

Q: And the GI50 (SR)?
A: The GI50 was 4.26 µM (inactive).

Q: What about the GI50 (UACC-257) of the same compound?
A: The GI50 was 19.1 µM (inactive).

Q: And the GI50 (UO-31)?
A: Its GI50 is 5.73 µM (inactive).

Q: Which GI50 (CAKI-1) does the source give for `COc1ccc(CCCCl)c(C2=NCCc3ccccc32)c1` here?
A: Its GI50 is > 100 µM (inactive).

Q: And the GI50 (DU-145)?
A: Its GI50 is > 100 µM (inactive).

Q: What about the GI50 (HCC 2998) of the same compound?
A: The GI50 was 23.4 µM (inactive).

Q: What about the GI50 (HCT-15) of the same compound?
A: The GI50 was greater than 100 µM.

Q: What about the GI50 (KM12) of the same compound?
A: The GI50 was 27.4 µM (inactive).

Q: And the GI50 (M14)?
A: Its GI50 is 71.3 µM (inactive).

Q: What about the GI50 (MDA-MB-231) of the same compound?
A: Its GI50 is 25.1 µM (inactive).

Q: What about the GI50 (MDA-MB-435) of the same compound?
A: The GI50 was 26.2 µM (inactive).

Q: And the GI50 (NCI-H23)?
A: The GI50 was 11.1 µM (inactive).

Q: And the GI50 (OVCAR-3)?
A: Its GI50 is 56.5 µM (inactive).

Q: What about the GI50 (OVCAR-4) of the same compound?
A: The GI50 was 45.1 µM (inactive).

Q: What about the GI50 (OVCAR-8) of the same compound?
A: Its GI50 is 35.4 µM (inactive).

Q: What about the GI50 (RXF 393) of the same compound?
A: The GI50 was 56.9 µM (inactive).

Q: What about the GI50 (SF-295) of the same compound?
A: The GI50 was 32.8 µM (inactive).

Q: And the GI50 (SF-539)?
A: Its GI50 is 35.8 µM (inactive).

Q: What about the GI50 (SK-MEL-28) of the same compound?
A: Its GI50 is > 100 µM (inactive).

Q: And the GI50 (SNB-19)?
A: Its GI50 is 14.8 µM (inactive).

Q: And the GI50 (SR)?
A: The GI50 was 28.1 µM (inactive).

Q: And the GI50 (UACC-257)?
A: The GI50 was 34.7 µM (inactive).

Q: What about the GI50 (UO-31) of the same compound?
A: Its GI50 is 66.5 µM (inactive).
